Experimental data reported in patent US10428083B2, “Heterocyclylmethyl-thienouracile as antagonists of the adenosine-A2B-receptor” (BAYER PHARMA AKTIENGESELLSCHAFT, priority 2015, dated 2019).

Biological target: human adenosine A2b receptor (Homo sapiens (Human), UniProt P29275)
Assay: Cellular in vitro reporter gene test for A2b receptor activity (CHO-K1, CRE-luciferase, NECA stimulation)
Assay type: cell-based
Settings: recombinant CHO-K1 cell line, CRE-luciferase reporter, antagonism of EC50 concentration of NECA; in some cases means of several determinations, rounded to two significant figures; read-out: A2b receptor IC50
In short: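 CHO-K1 cells with CRE-driven luciferase; antagonists co-incubated with NECA at its EC50, determined in a pre-experiment on each test day. Luciferase read by luminescence 3 h after NECA addition.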

human adenosine A2b receptor, sequence (P29275 whole entry): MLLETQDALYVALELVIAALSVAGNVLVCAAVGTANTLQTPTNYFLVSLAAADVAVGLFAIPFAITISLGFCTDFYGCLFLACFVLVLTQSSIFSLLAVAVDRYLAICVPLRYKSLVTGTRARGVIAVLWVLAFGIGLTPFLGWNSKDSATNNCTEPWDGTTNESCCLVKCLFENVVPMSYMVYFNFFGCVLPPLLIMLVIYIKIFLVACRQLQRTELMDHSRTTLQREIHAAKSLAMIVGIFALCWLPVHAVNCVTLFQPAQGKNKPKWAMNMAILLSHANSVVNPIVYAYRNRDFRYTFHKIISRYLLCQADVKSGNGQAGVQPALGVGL

Compound	IC50
Cc1c(CN2CCNC2=NC#N)sc2c1c(=O)n(CC(C)(C)C)c(=O)n2CC1CCCO1 (single isomer, unassigned) [Example 448, [1-{[3-(2,2-Dimethylpropyl)-5-methyl-2,4-dioxo-1-(tetrahydrofuran-2-ylmethyl)-1,2,3,4-tetrahydrothieno[2,3-d]pyrimidin-6-yl]methyl}imidazolidin-2-ylidene]cyanamide]	17 nM
Cc1c(CN2CCNC2=NC#N)sc2c1c(=O)n(CC(F)(F)F)c(=O)n2CC1CCO1 (single isomer, unassigned) [Example 449, [1-{[5-Methyl-1-(oxetan-2-ylmethyl)-2,4-dioxo-3-(2,2,2-trifluoroethyl)-1,2,3,4-tetrahydrothieno[2,3-d]pyrimidin-6-yl]methyl}imidazolidin-2-ylidene]cyanamide]	54 nM
Cc1c(CN2CCNC2=NC#N)sc2c1c(=O)n(CC(F)(F)F)c(=O)n2CC1CCO1 (single isomer, unassigned) [Example 450, [1-{[5-Methyl-1-(oxetan-2-ylmethyl)-2,4-dioxo-3-(2,2,2-trifluoroethyl)-1,2,3,4-tetrahydrothieno[2,3-d]pyrimidin-6-yl]methyl}imidazolidin-2-ylidene]cyanamide]	14 nM
COC(C)Cn1c(=O)c2c(C)c(CN3CCNC3=NC#N)sc2n(CCC(F)(F)F)c1=O (single isomer, unassigned) [Example 455, [1-{[3-(2-Methoxypropyl)-5-methyl-2,4-dioxo-1-(3,3,3-trifluoropropyl)-1,2,3,4-tetrahydrothieno[2,3-d]pyrimidin-6-yl]methyl}imidazolidin-2-ylidene]cyanamide]	3.6 nM
COC(C)Cn1c(=O)c2c(C)c(CN3CCNC3=NC#N)sc2n(CCC(F)(F)F)c1=O (single isomer, unassigned) [Example 456, [1-{[3-(2-Methoxypropyl)-5-methyl-2,4-dioxo-1-(3,3,3-trifluoropropyl)-1,2,3,4-tetrahydrothieno[2,3-d]pyrimidin-6-yl]methyl}imidazolidin-2-ylidene]cyanamide]	15 nM
COC(=O)N=C1NCCN1Cc1sc2c(c1C)c(=O)n(C(C)C)c(=O)n2CC1CCO1 (single isomer, unassigned) [Example 457, Methyl [1-{[3-isopropyl-5-methyl-1-(oxetan-2-ylmethyl)-2,4-dioxo-1,2,3,4-tetrahydrothieno[2,3-d]pyrimidin-6-yl]methyl}imidazolidin-2-ylidene]carbamate]	7.1 nM
COC(=O)N=C1NCCN1Cc1sc2c(c1C)c(=O)n(C(C)C)c(=O)n2CC1CCO1 (single isomer, unassigned) [Example 458, Methyl [1-{[3-isopropyl-5-methyl-1-(oxetan-2-ylmethyl)-2,4-dioxo-1,2,3,4-tetrahydrothieno[2,3-d]pyrimidin-6-yl]methyl}imidazolidin-2-ylidene]carbamate]	34 nM
COC(=O)N=C1NCCN1Cc1sc2c(c1C)c(=O)n(C(C)C)c(=O)n2CC1CCCO1 (single isomer, unassigned) [Example 459, Methyl [1-{[3-isopropyl-5-methyl-2,4-dioxo-1-(tetrahydrofuran-2-ylmethyl)-1,2,3,4-tetrahydrothieno[2,3-d]pyrimidin-6-yl]methyl}imidazolidin-2-ylidene]carbamate]	4.9 nM
COC(=O)N=C1NCCN1Cc1sc2c(c1C)c(=O)n(C(C)C)c(=O)n2CC1CCCO1 (single isomer, unassigned) [Example 460, Methyl [1-{[3-isopropyl-5-methyl-2,4-dioxo-1-(tetrahydrofuran-2-ylmethyl)-1,2,3,4-tetrahydrothieno[2,3-d]pyrimidin-6-yl]methyl}imidazolidin-2-ylidene]carbamate]	22 nM
COC(=O)N=C1NCCN1Cc1sc2c(c1C)c(=O)n(CC(C)(C)C)c(=O)n2CC1CCCO1 (single isomer, unassigned) [Example 464, Methyl [1-{[3-(2,2-dimethylpropyl)-5-methyl-2,4-dioxo-1-(tetrahydrofuran-2-ylmethyl)-1,2,3,4-tetrahydrothieno[2,3-d]pyrimidin-6-yl]methyl}imidazolidin-2-ylidene]carbamate]	9.9 nM
COC(=O)N=C1NCCN1Cc1sc2c(c1C)c(=O)n(CC(C)(C)C)c(=O)n2CC1CCCO1 (single isomer, unassigned) [Example 465, Methyl [1-{[3-(2,2-dimethylpropyl)-5-methyl-2,4-dioxo-1-(tetrahydrofuran-2-ylmethyl)-1,2,3,4-tetrahydrothieno[2,3-d]pyrimidin-6-yl]methyl}imidazolidin-2-ylidene]carbamate]	13 nM
COC(=O)N=C1NCCN1Cc1sc2c(c1C)c(=O)n(CC(F)(F)F)c(=O)n2CC1CCO1 (single isomer, unassigned) [Example 466, Methyl [1-{[5-methyl-1-(oxetan-2-ylmethyl)-2,4-dioxo-3-(2,2,2-trifluoroethyl)-1,2,3,4-tetrahydrothieno[2,3-d]pyrimidin-6-yl]methyl}imidazolidin-2-ylidene]carbamate]	6.6 nM
COC(=O)N=C1NCCN1Cc1sc2c(c1C)c(=O)n(CC(F)(F)F)c(=O)n2CC1CCO1 (single isomer, unassigned) [Example 467, Methyl [1-{[5-methyl-1-(oxetan-2-ylmethyl)-2,4-dioxo-3-(2,2,2-trifluoroethyl)-1,2,3,4-tetrahydrothieno[2,3-d]pyrimidin-6-yl]methyl}imidazolidin-2-ylidene]carbamate]	30 nM
COC(=O)N=C1NCCN1Cc1sc2c(c1C)c(=O)n(CC(F)(F)F)c(=O)n2CC1CCCO1 (single isomer, unassigned) [Example 468, Methyl [1-{[5-methyl-2,4-dioxo-1-(tetrahydrofuran-2-ylmethyl)-3-(2,2,2-trifluoroethyl)-1,2,3,4-tetrahydrothieno[2,3-d]pyrimidin-6-yl]methyl}imidazolidin-2-ylidene]carbamate]	6.1 nM
COC(=O)N=C1NCCN1Cc1sc2c(c1C)c(=O)n(CC(F)(F)F)c(=O)n2CC1CCCO1 (single isomer, unassigned) [Example 469, Methyl [1-{[5-methyl-2,4-dioxo-1-(tetrahydrofuran-2-ylmethyl)-3-(2,2,2-trifluoroethyl)-1,2,3,4-tetrahydrothieno[2,3-d]pyrimidin-6-yl]methyl}imidazolidin-2-ylidene]carbamate]	8.8 nM
COC(=O)N=C1NCCN1Cc1sc2c(c1C)c(=O)n(CC(C)OC)c(=O)n2CCC(F)(F)F (single isomer, unassigned) [Example 473, Methyl [1-{[3-(2-methoxypropyl)-5-methyl-2,4-dioxo-1-(3,3,3-trifluoropropyl)-1,2,3,4-tetrahydrothieno[2,3-d]pyrimidin-6-yl]methyl}imidazolidin-2-ylidene]carbamate]	3.4 nM
COC(=O)N=C1NCCN1Cc1sc2c(c1C)c(=O)n(CC(C)OC)c(=O)n2CCC(F)(F)F (single isomer, unassigned) [Example 474, Methyl [1-{[3-(2-methoxypropyl)-5-methyl-2,4-dioxo-1-(3,3,3-trifluoropropyl)-1,2,3,4-tetrahydrothieno[2,3-d]pyrimidin-6-yl]methyl}imidazolidin-2-ylidene]carbamate]	5.6 nM
CCn1c(=O)c2c(C)c(CN3CCNC(=O)C3=O)sc2n(CC2CCCO2)c1=O (single isomer, unassigned) [Example 476, 6-[(2,3-Dioxopiperazin-1-yl)methyl]-3-ethyl-5-methyl-1-(tetrahydrofuran-2-ylmethyl)thieno[2,3-d]pyrimidine-2,4(1H,3H)-dione]	140 nM
CCn1c(=O)c2c(C)c(CN3CCNC(=O)C3=O)sc2n(CC2CCCO2)c1=O (single isomer, unassigned) [Example 477, 6-[(2,3-Dioxopiperazin-1-yl)methyl]-3-ethyl-5-methyl-1-(tetrahydrofuran-2-ylmethyl)thieno[2,3-d]pyrimidine-2,4(1H,3H)-dione]	270 nM
Cc1c(CN2CCNC(=O)C2=O)sc2c1c(=O)n(C(C)C)c(=O)n2CC1CCCO1 (single isomer, unassigned) [Example 481, 6-[(2,3-Dioxopiperazin-1-yl)methyl]-3-isopropyl-5-methyl-1-(tetrahydrofuran-2-ylmethyl)thieno[2,3-d]pyrimidine-2,4(1H,3H)-dione]	140 nM
Cc1c(CN2CCNC(=O)C2=O)sc2c1c(=O)n(C(C)C)c(=O)n2CC1CCCO1 (single isomer, unassigned) [Example 482, 6-[(2,3-Dioxopiperazin-1-yl)methyl]-3-isopropyl-5-methyl-1-(tetrahydrofuran-2-ylmethyl)thieno[2,3-d]pyrimidine-2,4(1H,3H)-dione]	410 nM
Cc1c(CN2CCNC(=O)C2=O)sc2c1c(=O)n(CC(C)(C)C)c(=O)n2CC1CCCO1 (single isomer, unassigned) [Example 484, 3-(2,2-Dimethylpropyl)-6-[(2,3-dioxopiperazin-1-yl)methyl]-5-methyl-1-(tetrahydrofuran-2-ylmethyl)thieno[2,3-d]pyrimidine-2,4(1H,3H)-dione]	67 nM
Cc1c(CN2CCNC(=O)C2=O)sc2c1c(=O)n(CC(C)(C)C)c(=O)n2CC1CCCO1 (single isomer, unassigned) [Example 485, 3-(2,2-Dimethylpropyl)-6-[(2,3-dioxopiperazin-1-yl)methyl]-5-methyl-1-(tetrahydrofuran-2-ylmethyl)thieno[2,3-d]pyrimidine-2,4(1H,3H)-dione]	52 nM
Cc1c(CN2CCNC(=O)C2=O)sc2c1c(=O)n(CC(F)(F)F)c(=O)n2CC1CCCO1 (single isomer, unassigned) [Example 488, 6-[(2,3-Dioxopiperazin-1-yl)methyl]-5-methyl-1-(tetrahydrofuran-2-ylmethyl)-3-(2,2,2-trifluoroethyl)thieno[2,3-d]pyrimidine-2,4(1H,3H)-dione]	68 nM
